Assays:
Type in all cases: ADME, organism-based
[1] = Drug excretion in human subject slow inactivator assessed as total isonicotinoyl compound level in urine at 681 mg, iv infused at constant rate 5.4 min measured 496 mins after start of drug injection by colorimetry; details: in vivo
[2] = Drug excretion in human subject rapid inactivator assessed as total isonicotinoyl compound level in urine at 670 mg, iv infused at constant rate 5.2min measured 227 mins after start of drug injection by colorimetry; details: in vivo
[3] = Drug excretion in human subject rapid inactivator assessed as sum of isoniazid plus hydrazones, acetylisoniazid, isonicotinic acid and isonicotinuric acid level in urine at 670 mg, iv infused at constant rate 5.2min measured 227 mins after start of drug injection by colorimetry; details: in vivo
[4] = Drug excretion in human subject rapid inactivator assessed as total isonicotinoyl compound level in urine at 670 mg, iv infused at constant rate 5.2min measured 335 mins after start of drug injection by colorimetry; details: in vivo
[5] = Drug excretion in human subject slow inactivator assessed as total isonicotinoyl compound level in urine at 681 mg, iv infused at constant rate 5.4 min measured 613 mins after start of drug injection by colorimetry; details: in vivo
[6] = Drug excretion in human subject slow inactivator assessed as total isonicotinoyl compound level in urine at 681 mg, iv infused at constant rate 5.4 min measured 35.5 mins after start of drug injection by colorimetry; details: in vivo
[7] = Drug excretion in human subject slow inactivator assessed as total isonicotinoyl compound level in urine at 681 mg, iv infused at constant rate 5.4 min measured 181 mins after start of drug injection by colorimetry; details: in vivo
[8] = Drug excretion in human subject slow inactivator assessed as total isonicotinoyl compound level in urine at 681 mg, iv infused at constant rate 5.4 min measured 243.5 mins after start of drug injection by colorimetry; details: in vivo
[9] = Drug excretion in human subject rapid inactivator assessed as total isonicotinoyl compound level in urine at 670 mg, iv infused at constant rate 5.2min measured 486 mins after start of drug injection by colorimetry; details: in vivo, 8.1 h
[10] = Drug excretion in human slow inactivators urine assessed as isoniazid plus hydrazones level at 1 g, iv by colorimetry; details: in vivo
[11] = Drug excretion in human subject slow inactivator assessed as total isonicotinoyl compound level in urine at 681 mg, iv infused at constant rate 5.4 min measured 150 mins after start of drug injection by colorimetry; details: in vivo, 2.5 h
[12] = Drug excretion in human subject slow inactivator assessed as sum of isoniazid plus hydrazones, acetylisoniazid, isonicotinic acid and isonicotinuric acid level in urine at 681 mg, iv infused at constant rate 5.4 min measured 208.7 mins after start of drug injection by colorimetry; details: in vivo, 3.47833 h
[13] = Drug excretion in human subject slow inactivator assessed as total isonicotinoyl compound level in urine at 681 mg, iv infused at constant rate 5.4 min measured 305 mins after start of drug injection by colorimetry; details: in vivo
[14] = Drug excretion in human subject rapid inactivator assessed as sum of isoniazid plus hydrazones, acetylisoniazid, isonicotinic acid and isonicotinuric acid level in urine at 670 mg, iv infused at constant rate 5.2min measured 400 mins after start of drug injection by colorimetry; details: in vivo
[15] = Drug excretion in human subject slow inactivator assessed as total isonicotinoyl compound level in urine at 681 mg, iv infused at constant rate 5.4 min measured 370.3 mins after start of drug injection by colorimetry; details: in vivo, 6.17167 h
[16] = Drug excretion in human subject rapid inactivator assessed as total isonicotinoyl compound level in urine at 670 mg, iv infused at constant rate 5.2min measured 158 mins after start of drug injection by colorimetry; details: in vivo
[17] = Drug excretion in human subject slow inactivator assessed as sum of isoniazid plus hydrazones, acetylisoniazid, isonicotinic acid and isonicotinuric acid level in urine at 681 mg, iv infused at constant rate 5.4 min measured 181 mins after start of drug injection by colorimetry; details: in vivo
[18] = Drug excretion in human rapid inactivators urine assessed as isonicotinuric acid level at 1 g, iv by colorimetry; details: in vivo
[19] = Drug excretion in human subject rapid inactivator assessed as total isonicotinoyl compound level in urine at 670 mg, iv infused at constant rate 5.2min measured 94 mins after start of drug injection by colorimetry; details: in vivo
[20] = Drug excretion in human subject rapid inactivator assessed as sum of isoniazid plus hydrazones, acetylisoniazid, isonicotinic acid and isonicotinuric acid level in urine at 670 mg, iv infused at constant rate 5.2min measured 32 mins after start of drug injection by colorimetry; details: in vivo
[21] = Drug excretion in human subject rapid inactivator assessed as total isonicotinoyl compound level in urine at 670 mg, iv infused at constant rate 5.2min measured 259 mins after start of drug injection by colorimetry; details: in vivo
[22] = Drug excretion in human subject rapid inactivator assessed as total isonicotinoyl compound level in urine at 670 mg, iv infused at constant rate 5.2min measured 195 mins after start of drug injection by colorimetry; details: in vivo, 3.25 h
[23] = Drug excretion in human subject rapid inactivator assessed as sum of isoniazid plus hydrazones, acetylisoniazid, isonicotinic acid and isonicotinuric acid level in urine at 670 mg, iv infused at constant rate 5.2min measured 486 mins after start of drug injection by colorimetry; details: in vivo, 8.1 h
[24] = Drug excretion in human subject slow inactivator assessed as total isonicotinoyl compound level in urine at 681 mg, iv infused at constant rate 5.4 min measured 677 mins after start of drug injection by colorimetry; details: in vivo
[25] = Drug excretion in human subject rapid inactivator assessed as sum of isoniazid plus hydrazones, acetylisoniazid, isonicotinic acid and isonicotinuric acid level in urine at 670 mg, iv infused at constant rate 5.2min measured 195 mins after start of drug injection by colorimetry; details: in vivo, 3.25 h
[26] = Drug metabolism in human rapid inactivators assessed as excretion of pyruvic acid isonicotinoylhydrazone in urine at 1 g, iv by colorimetry; details: in vivo
[27] = Drug metabolism in human slow inactivators assessed as excretion of isonicotinuric acid in urine at 1 g, iv by colorimetry; details: in vivo
[28] = Drug excretion in human subject slow inactivator assessed as sum of isoniazid plus hydrazones, acetylisoniazid, isonicotinic acid and isonicotinuric acid level in urine at 681 mg, iv infused at constant rate 5.4 min measured 466 mins after start of drug injection by colorimetry; details: in vivo
[29] = Drug excretion in human subject slow inactivator assessed as total isonicotinoyl compound level in urine at 681 mg, iv infused at constant rate 5.4 min measured 339.3 mins after start of drug injection by colorimetry; details: in vivo, 5.655 h
[30] = Drug excretion in human subject slow inactivator assessed as sum of isoniazid plus hydrazones, acetylisoniazid, isonicotinic acid and isonicotinuric acid level in urine at 681 mg, iv infused at constant rate 5.4 min measured 586 mins after start of drug injection by colorimetry; details: in vivo
[31] = Drug excretion in human subject slow inactivator assessed as total isonicotinoyl compound level in urine at 681 mg, iv infused at constant rate 5.4 min measured 648 mins after start of drug injection by colorimetry; details: in vivo, 10.8 h
[32] = Drug excretion in human subject rapid inactivator assessed as sum of isoniazid plus hydrazones, acetylisoniazid, isonicotinic acid and isonicotinuric acid level in urine at 670 mg, iv infused at constant rate 5.2min measured 373 mins after start of drug injection by colorimetry; details: in vivo

Q: For `NNC(=O)c1ccncc1` [ISONIAZID], which Drug excretion [1] is on record?
A: 13.5 mg

Q: And the Drug excretion [2]?
A: 38.8 mg

Q: What about the Drug excretion [3] of the same molecule?
A: 38.5 mg

Q: What about the Drug excretion [4] of the same molecule?
A: 29.6 mg

Q: And the Drug excretion [5]?
A: 12.2 mg

Q: What about the Drug excretion [6] of the same molecule?
A: 50.1 mg

Q: And the Drug excretion [7]?
A: 33.6 mg

Q: And the Drug excretion [8]?
A: 36.2 mg

Q: And the Drug excretion [9]?
A: 12.5 mg

Q: And the Drug excretion [10]?
A: 98%

Q: And the Drug excretion [11]?
A: 38.1 mg

Q: What about the Drug excretion [12] of the same molecule?
A: 28.41 mg

Q: What about the Drug excretion [13] of the same molecule?
A: 27.3 mg

Q: What about the Drug excretion [14] of the same molecule?
A: 17.9 mg

Q: And the Drug excretion [15]?
A: 26.6 mg

Q: And the Drug excretion [16]?
A: 51.7 mg

Q: And the Drug excretion [17]?
A: 34.76 mg

Q: What about the Drug excretion [18] of the same molecule?
A: 101%

Q: What about the Drug excretion [19] of the same molecule?
A: 51.8 mg

Q: What about the Drug excretion [20] of the same molecule?
A: 42.1 mg

Q: And the Drug excretion [21]?
A: 39.7 mg

Q: And the Drug excretion [22]?
A: 59.9 mg

Q: What about the Drug excretion [23] of the same molecule?
A: 13 mg

Q: What about the Drug excretion [24] of the same molecule?
A: 10.6 mg

Q: What about the Drug excretion [25] of the same molecule?
A: 57.7 mg

Q: And the Drug metabolism [26]?
A: 2.9 %molar

Q: What about the Drug metabolism [27] of the same molecule?
A: 14.2 %molar

Q: What about the Drug excretion [28] of the same molecule?
A: 20.23 mg

Q: And the Drug excretion [29]?
A: 32 mg

Q: What about the Drug excretion [30] of the same molecule?
A: 13.18 mg

Q: And the Drug excretion [31]?
A: 11.6 mg

Q: And the Drug excretion [32]?
A: 28 mg
